Test results as given in article PMC4475797, “New Activity of a Protein from Canavalia ensiformis” (Scientia Pharmaceutica, 2014).
Where two headings read alike, the source gives them in different places.

Experiments:
Concanavalin A (Con A) = molecular target: T1, Concanavalin A (Con A) (Canavalia ensiformis, UniProt P02866); assay: biochemical; assay type: binding
T1 construct: purchased Sigma
Method: Fluorescence spectra were recorded with a Shimadzu spectrofluorometer (Japan). The emission spectra of the tryptophan residues were recorded in a 1-cm quartz cell (Hellma Analytics, Germany). To avoid the measurement of the Tyr emission, the protein sample was excited at λ=295 nm with a slit width of 1.0 nm. Total fluorescence was calculated after the normalization of the fluorescence spectra and correction for dilution. In order to normalize the inner filter and self-absorption effects, the excitation was always carried out less than 0.05 OD. The spectra were recorded in a wavelength range of 300–500 nm. All studies were done at 25°C with the temperature of the samples measured in the cuvette with an accuracy of ± 0.2°C.
The protein-ligand interactions were investigated by monitoring changes in the intrinsic protein fluorescence emission (θexc=295 nm). We applied ideal fluorescence titration and incubation methods for their intrinsic sensitivity and simplicity. For this purpose, Con A (1.8 µM) was incubated at 4°C overnight with increasing concentrations of MnTMPyP, ZnTPPS, and FeTMPyP. […] Applied porphyrin concentrations were consistent with minimizing artifacts due to aggregation phenomena. Con A-adenine interactions were studied by overnight incubation (at 4°C). The obtained experimental data were processed by non-linear and linear regression analysis, computed by a GraphPad Prism program and presented in figures comprising three independent sets of experiments.

[1] = system: cancer cell lines (Du-145, HD-LAPC-4, Hep-G2, HI-LAPC-4, LnCAP, PANC-1, and PC-3); parameters: method as in PMID 20735206; conditions: combined with an ascorbic acid; cited from earlier work
[2] = system: G361 (a human melanoma cell line); parameters: method as in PMID 18645224; conditions: G361 cells; cited from earlier work
[3] = pH 6.8, read-out: Dissociation constants (KD) for the interaction

Compound	effect on Trp fluorescence emission of Con A (Concanavalin A (Con A))	Kd (Concanavalin A (Con A); [3]) [nM]	other results
5,10,15,20-Tetrakis(4-sulfonatophenyl)-porphyrin-Au(III)chloride [AuTPPS]	fluorescence quenching	–	–
C[n+]1ccc(-c2c3nc(c(-c4cc[n+](C)cc4)c4ccc([n-]4)c(-c4cc[n+](C)cc4)c4nc(c(-c5cc[n+](C)cc5)c5ccc2[n-]5)C=C4)C=C3)cc1.[Fe+3] [FeTMPyP, 5,10,15,20-Tetrakis (N-methyl 4-pyridyl)-porphyrin Fe(III)]	–	950 ± 130	Hill slope (h) (Concanavalin A (Con A)): 1.89±0.46; blue shift of the emission maximum (Concanavalin A (Con A)): 5 nm
C[n+]1ccc(-c2c3nc(c(-c4cc[n+](C)cc4)c4ccc([n-]4)c(-c4cc[n+](C)cc4)c4nc(c(-c5cc[n+](C)cc5)c5ccc2[n-]5)C=C4)C=C3)cc1.[Cl-].[Cl-].[Cl-].[Cl-].[Cl-].[Mn+3] [MnTMPyP, 5,10,15,20-Tetrakis (N-methyl-4-pyridyl)-porphyrin-Mn(III)pentachloride]	fluorescence quenching	1890 ± 540	cytotoxic effect [1]: potent synergistic cytotoxic effect
O=S(=O)([O-])c1ccc(-c2c3nc(c(-c4ccc(S(=O)(=O)[O-])cc4)c4ccc([nH]4)c(-c4ccc(S(=O)(=O)[O-])cc4)c4nc(c(-c5ccc(S(=O)(=O)[O-])cc5)c5ccc2[nH]5)C=C4)C=C3)cc1.[Zn+2].[Zn+2] [ZnTPPS, 5,10,15,20-Tetrakis (4-sulfonatophenyl)-porphyrin-zinc(II)]	increase in the Trp fluorescence	–	cell death [2]: induces cell death; red shift of the emission maximum position (Concanavalin A (Con A)): 10 nm
Nc1ncnc2[nH]cnc12 [adenine]	fluorescence quenching	–	Kd (Concanavalin A (Con A)): 380 ± 80 nM
